Assay results from paper PMC8781550, “The Effect of pH and Sodium Caseinate on the Aqueous Solubility, Stability, and Crystallinity of Rutin towards Concentrated Colloidally Stable Particles for the Incorporation into Functional Foods” (Molecules, 2022).

How the values were obtained:
[1] = Aqueous solubility (recovery) of rutin at various pH (centrifugation, HPLC of supernatant); assay type: physicochemical
Method: Rutin was mixed with Milli-Q® (MilliporeSigma, Burlington, MA, USA) water at various concentrations (0.01 to 10% w/v) and the pH of the mixtures increased gradually (while stirring at 300 rpm) until the full dissolution was achieved. […] Then, the pH was increased further until the complete dissolution. […] Samples were taken at each pH point (i.e., pH 1–11) and at each concentration of rutin.
In order to determine the optimum amount of both rutin and NaCas to achieve the best loading, various concentrations of rutin (0.01–4% w/v) were dissolved in a solution of NaCas (0.2–8% w/v) at pH 11, which was then acidified down to pH 6, where the precipitates were formed. A duration of 15 min between each pH adjustment was allowed, and samples were taken along the process at every pH point (i.e., pH 11, 9, 8, 7, and 6; pH below 6 was not considered as the sample withdrawal was not practical due to the co-precipitation of NaCas and rutin). The withdrawn samples were left for 30 min for the complete formation of the possible precipitates. Each sample was then divided into two equal parts; the first part was centrifuged (3000× g, 20 °C, 10 min) in the Amicon Ultra-15 Centrifugal Filter Units containing a cellulose membrane with a molecular weight cut-off of […] (Ultracel-100K, Millipore, Burlington, MA, USA) to remove both precipitates and colloidally stable complexes, while the second part was simply filtered using a 0.45 µm membrane (Millipore) to remove the precipitates only. The concentration of rutin in the ultrafiltrates, as well as the filtrates (the second part), was determined using HPLC analysis, and the rutin recovery% was calculated correspondingly. As the control, the same concentration of rutin (1%) was also treated and analysed the same way as the rutin–NaCas mixture. In this study, for simplicity, the recovery % of rutin is referred to as its solubility.

[2] = Chemical stability of rutin at alkaline pH (HPLC); assay type: physicochemical; conditions: rutin 1% w/v dissolved at pH 11.0 and kept for 30 min
[3] = Crystallinity of dried rutin at each pH (XRD); assay type: physicochemical
Method: To study the crystallinity of rutin at each pH, samples of rutin at each pH were stored in a desiccator with silica beads (25 °C) to dry and crystallize. The dried materials were ground using a mortar and pestle and then were analysed for the degree of crystallinity at 20.0 °C using a Rigaku Rapid image-plate detector (Rigaku, The Woodlands, TX, USA) set at 127.40 mm. The Cu Kα radiation (λ = 1.540562 Å) was generated by a Rigaku MicroMax007 microfocus (rotating anode generator; Rigaku, The Woodlands, TX, USA) and an Osmic-Rigaku metal multi-layer optic device (Rigaku, USA) was used for focusing and monochromation. Samples were mounted in Hampton CryoLoops (Hampton Research, Aliso Viejo, CA, USA), and data collection was under the control of RAPID II software (Version 2.4.2, Rigaku, USA). The data were background corrected and converted to a line profile with 2DP programme (Version 1.0.3.4, Rigaku, USA), and the resulting diffractograms were compared using CrystalDiffract software (Version 6.5.5, CrystalMaker Software Ltd., Oxfordshire, UK). A 2θ angle range of 5° to 100° was used for the analysis of all the samples.

[4] = design: method as in PMID 25496805, PMID 20201551; conditions: cited from earlier work
[5] = design: method as in doi:10.1016/j.foodhyd.2019.05.032; conditions: cited from earlier work
[6] = cited from earlier work

## C[C@@H]1O[C@@H](OC[C@H]2O[C@@H](Oc3c(-c4ccc(O)c(O)c4)oc4cc(O)cc(O)c4c3=O)[C@H](O)[C@@H](O)[C@@H]2O)[C@H](O)[C@H](O)[C@H]1O [rutin]
[1]; 0.01% w/v rutin in water, regardless of the pH
  Aqueous solubility of rutin: most of the rutin was soluble
[1]; dispersion containing 5% rutin, pH 9
  Aqueous solubility (recovery): fraction of rutin soluble: about 90%
[1]; pH 11.0
  Concentration of rutin that could be dissolved: 10 % (w/v)
[1]; pH < 6, 1% w/v rutin, regardless of association with NaCas
  Solubility (recovery) of rutin: almost all rutin was precipitated
[2]
  Decrease in initial concentration of rutin (chemical stability): ~10%
[3]; pH 11 and 10
  Crystallinity of dried rutin particles (XRD): amorphous
[3]; pH < 8
  Crystallinity of dried rutin particles (XRD): crystalline form
[3]; pH close to 1.0
  Crystallinity of dried rutin particles (XRD): crystalline rutin was not present
[4]
  logP: 0.15
[5]
  Solubility in ethanol: about 4 % w/v
[6]; 0.2 M NaOH, with or without beta-cyclodextrin
  Decomposition of rutin: slow decomposition
[6]; after 5 h, pH constantly adjusted to 8
  Rutin concentration remaining: approximately 20%
[6]; weak acidic conditions (pH 5)
  Rutin concentration: remained almost unchanged
